Data on eight molecules can be found in patent US6387891B2, “COMPOUNDS WITH CHELATION AFFINITY AND SELECTIVITY FOR FIRST TRANSITION SERIES ELEMENTS AND THEIR USE IN COSMETICS AND PERSONAL CARE PRODUCTS, INHIBITION OF METALLOENZYMES, AND INHIBITION OF REPERFUSION INJURY” (Concat, Ltd., priority 2000, dated 2002).

In data set [1] the test system is BGM cells (a continuous cell line of monkey origin). Kind of data set: Inhibition of mammalian cell replication in vitro. Type of data set: cell-based. On the procedure:
Concentrations of this ligand of 0.009 mM/L inhibited the growth of both BGM cells (a continuous cell line of monkey origin) and HFF cells (human foreskin fibroblasts).

The subject of data set [2] is HFF cells (human foreskin fibroblasts). The data set can be described thus: Inhibition of mammalian cell replication in vitro. It counts as cell-based.
Data set [3] can be described thus: Cytotoxicity study in AIDS antiviral screen (soluble-formazan assay). Type of data set: cell-based. The note with it: human, T4 lymphocytes. On the procedure:
(§1) The antiviral efficacy of N,N′,N″-tris(5-t-butyl-2-hydroxy-benzyl)-1,4,7-triazacyclononane against the AIDS virus was evaluated employing published methodology (see, “New Soluble-Formazin Assay for HIV-1 Cytopathic Effects: Application to High Flux Screening of Synthetic and Natural Products for AIDS-Antiviral Activity,” J. Natl. Cancer Inst. 81:577-586, 1989).

For another data set, the system named is AIDS virus. The data set can be described thus: Inhibition of AIDS virus replication (soluble-formazan assay for HIV-1 cytopathic effects). Type of data set: cell-based. The note with it: Human immunodeficiency virus 1; read-out: EC50 (inhibition of the AIDS Virion). The procedure: as §1
(Damage to the host cells serves as the signal in cytopathic effect assays.)

For data set [4], the system named is Trichophyton mentagrophytes. The data set can be described thus: Inhibition of mycotic cell replication in vitro (MIC). It counts as cell-based. The procedure: (§2) N,N′,N″-tris(dihydroxyphosphorylmethyl)-1,4,7-triazacyclononane was prepared as described in Example 1C in U.S. Pat. No. 5,236,695. Studies were performed to determine its ability to inhibit growth of mycotic (fungal) organisms.
(§3) For Microsporum canis the minimum inhibitory concentration was 0.233 mM/L or less. For Candida albicans and Trichophyton rubrum the minimal inhibitory concentration was 2.33 mM/L. For Trichophyton mentagrophytes, Trichophyton tonsuras and Trichophyton violaceum the minimal inhibitory concentration was 23.3 mM/L.

In another data set the test system is Trichophyton violaceum. The data set is described as above. Type of data set: cell-based. The procedure:
as §2, §3

Another data set concerns Trichophyton rubrum. The data set is described as above. It counts as cell-based. On the procedure:
as §2, §3

A further data set concerns Candida albicans. The description is as above. It counts as cell-based. The procedure: as §2, §3
A further data set deals with Microsporum canis. The data set is described as above. Type of data set: cell-based. The procedure:
as §2, §3

In a further data set the test system is Trichophyton tonsuras. The description is as above. Type of data set: cell-based. The procedure:
as §2, §3

For another data set, the system named is Enterococcus fecalis. The data set can be described thus: Inhibition of bacterial replication in vitro (MIC). Type of data set: cell-based. On the procedure:
(§4) N,N′,N″-tris(dihydroxyphosphorylmethyl)-1,4,7-triazacyclononane was prepared as described in Example 1C in U.S. Pat. No. 5,236,695. Studies were performed to determine its ability to inhibit bacterial growth. For Streptococcus hemolyticus, Listeria monocytogenes, Enterobacter cloacae and Klebsiella pneumoniae the minimum inhibitory concentration was determined to be 0.15 mM/L. For Enterococcus fecalis, Pseudomonas aeruginosa and Acinobacter anitratus the minimum inhibitory concentration was determined to be 0.3 mM/L.

The test system of a further data set is Acinobacter anitratus. The data set can be described thus: Inhibition of bacterial replication in vitro (MIC). Type of data set: cell-based. The procedure:
as §4

Another data set concerns Klebsiella pneumoniae. The data set can be described thus: Inhibition of bacterial replication in vitro (MIC). It counts as cell-based. On the procedure:
as §4

A further data set has as its system Listeria monocytogenes. The data set can be described thus: Inhibition of bacterial replication in vitro (MIC). Type of data set: cell-based. On the procedure: as §4
The subject of the next data set is Pseudomonas aeruginosa. The data set can be described thus: Inhibition of bacterial replication in vitro (MIC). It counts as cell-based. The procedure:
as §4

For the next data set, the system named is Enterobacter cloacae. The data set can be described thus: Inhibition of bacterial replication in vitro (MIC). It counts as cell-based. On the procedure:
as §4

The test system of data set [5] is Streptococcus hemolyticus. Kind of data set: Inhibition of bacterial replication in vitro (MIC). It counts as cell-based. On the procedure:
as §4

The test system of the next data set is Sprague Dawley rats. Kind of data set: Subacute toxicity, repeated intravenous doses in rats. It counts as in vivo. The note with it: 0.05 millimoles per kg i.v. on 10 days. From the text:
Ten male Sprague Dawley rats 29 days old and weighing between 73.4 and 87.8 grams at the beginning of the experiment were randomized, employing the block stratification method, into two groups consisting of five rats each. On each of days 1, 2, 3, 6, 7, 8, 9, 10, 13 and 14 of the experiment one set of rats received an intravenous dose of N,N′,N″-tri(dihydroxyphosphoryl methyl)-1,4,7-triazacyclononane (Example 1C in U.S. Pat. No. 5,236,695) equal to 0.05 millimoles per kg of initial body weight (experimental group) while the other group received an equivalent volume of normal saline solution. The weights of the animals were recorded three times per week and the animals were sacrificed on the 28th day, major organs removed and weighed and tissues removed for microscopic examination.

For the next data set, the system named is Streptococcus Sobrinus. Kind of data set: Inhibition of cariogenic bacteria (MIC, RPMI medium). It counts as cell-based. The settings on record: read-out: minimum inhibitory concentration (MIC).
Data set [6] has as its system mature, nonreplicating cultures of HFF (human foreskin fibroblasts). The data set can be described thus: Toxicity toward nonproliferating mammalian cells in vitro. It counts as cell-based. The note with it: 0.3 mM, maintenance media, five-day period of observation.
Data set [7] in a line: Chemical antioxidant properties, coupled oxidation of carotene and linoleic acid. It counts as physicochemical. On the procedure: Antioxidant properties of N,N′,N″-tri(dihydroxyphosphoryl methyl)-1,4,7-triazacyclononane were evaluated employing the coupled oxidation of carotene and linoleic acid, using the method described in “Phenolic Antioxidants of Dried Soybeans,” Hammerschmidt, P. A., Praat, D. E., 1978, Journal of Food Sciences, vol. 43, pp. 556-559.

Data set [8] concerns 57 human cancer cell lines. Kind of data set: In vitro proliferation of 57 human cancer cell lines. The note with it: cell line groups compared. Type of data set: cell-based. On the procedure: The ability of N-methyl-N′,N″-bis(dihydroxyphorylmethyl)-1,4,7-triazacyclononane to inhibit proliferation of 57 human cancer cell lines in vitro was evaluated employing published methods as published in J. Natl. Cancer Inst., 83:757-766, 1991. The concentration of agent that caused 50% inhibition of cell replication relative to controls [Gl50] were determined. In one set of experiments the mean midpoint of Gl50 for all cell lines tested was (10)^−4.72 with a delta value of (10)^2.95 and a range of (10)^3.67.

Another data set relates to monocyte. Kind of data set: Monocyte penetration of Matrigel membranes. Type of data set: cell-based. From the text: (§5) Matrix metalloproteinase-2 (MMP-2) secreted by cells into growth media was separated by gel electrophoresis into its distinct band. […] Concentrations of less than 10 microM of sodium salt of N,N′,N″-tri(dihydroxyphosphoryl methyl)-1,4,7-triazacyclononane inhibited monocyte penetration of Matrigel membranes.

In a further data set the test system is mice. The data set can be described thus: Acute intravenous toxicity in mice. It counts as in vivo. The settings on record: 4.0 mM/kg single intravenous dose. The procedure: (§6) This example illustrates the low in vivo toxicity of a representative ligand administer intravenously to mice.
(§7) This in vivo LD50 toxicity dose results in an instantaneous in vivo concentration which is orders of magnitude greater than the dose of this agent which inhibits mammalian cell replication in vitro (0.009 mM/L).

A short description of data set [9]: Acute intravenous toxicity in mice. It counts as in vivo. The note with it: mouse, in vivo, 4 mM/kg, intravenous. On the procedure: as §6, §7
In a further data set the test system is underarm odor. Kind of data set: Inhibition of underarm odor in human subjects. It counts as in vivo. The source says: Human subjects applied a 30% aqueous solution of the neutral sodium salt of N,N′,N″-tri(dihydroxyphosphoryl methyl)-1,4,7-triazacyclononane in one axilla and a control aqueous solution in the other.
The target of another data set is pure MMP-2 enzyme (Homo sapiens, UniProt P08253). The data set can be described thus: Inhibition of pure MMP-2 enzyme. It counts as biochemical.
pure MMP-2 enzyme, sequence (P08253 110-660): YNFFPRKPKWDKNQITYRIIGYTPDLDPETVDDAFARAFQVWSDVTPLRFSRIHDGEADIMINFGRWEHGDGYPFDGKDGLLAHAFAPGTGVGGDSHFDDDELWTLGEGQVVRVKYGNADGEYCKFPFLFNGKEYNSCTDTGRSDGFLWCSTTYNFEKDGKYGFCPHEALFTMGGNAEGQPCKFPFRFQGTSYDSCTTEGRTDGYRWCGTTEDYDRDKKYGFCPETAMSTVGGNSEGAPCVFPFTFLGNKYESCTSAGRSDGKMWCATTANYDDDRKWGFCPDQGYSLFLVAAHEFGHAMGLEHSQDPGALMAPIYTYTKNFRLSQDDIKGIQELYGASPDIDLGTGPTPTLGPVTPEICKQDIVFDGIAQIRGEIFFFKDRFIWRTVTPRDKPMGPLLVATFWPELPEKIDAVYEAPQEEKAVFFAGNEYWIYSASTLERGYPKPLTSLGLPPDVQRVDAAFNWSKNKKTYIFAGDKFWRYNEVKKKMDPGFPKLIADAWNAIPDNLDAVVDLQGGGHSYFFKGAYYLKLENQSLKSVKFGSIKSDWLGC
The target of data set [10] is T1, Matrix metalloproteinase-2 (MMP-2) secreted by cells (Homo sapiens, UniProt P08253).
T1 construct: Matrix metalloproteinase-2 (MMP-2) secreted by cells into growth media; endogenous in cells
T1 sequence (P08253 110-660, species assumed): as the sequence (P08253 110-660) above
Kind of data set: MMP-2 inhibition after gel electrophoresis, incubation in developing medium. The settings on record: MMP-2 band after gel electrophoresis. It counts as biochemical.
Description: as §5

The subject of data set [11] is isolated working rat heart. The data set can be described thus: Ischemic/reperfused isolated working rat heart model. The procedure: Using the ischemic/reperfused isolated working rat heart model of Ferdinandy et al., Cardiovasc. […] Concentrations of this agent as high as 7.2 mM had no adverse effects on the heart either before or after hypoxia/reperfusion injury.

Where a name gives a salt, the structure may show the parent alone. Some results are limits rather than exact numbers.

`O=C(O)CN(CCN(CC(=O)O)CC(=O)O)CCN(CC(=O)O)CC(=O)O` [Diethylene triamine penta acetic acid, reference compound]: the “concentration that inhibited BGM cell growth” value in [1] is 0.075 mM/L. Also, the “concentration that inhibited HFF cell growth” value in data set [2] came to 0.3 mM/L.

As to `O=C(O)CN1CCN(CC(=O)O)CCN(CC(=O)O)CC1` [Example 1.3.6.1, N,N′,N″-Tris(carboxymethyl)-1,4,7-triazacyclononane], the “concentration that inhibited BGM cell growth” value in data set [1] is given as 0.009 mM/L. Besides, the “concentration that inhibited HFF cell growth” value in data set [2] is 0.019 mM/L.

With `CCOC(=O)CN1CCN(CC(=O)OCC)CCN(CC(=O)OCC)CC1` [Example 1.3.6.13, N,N′,N″-Tris(ethoxycarbonylmethyl)-1,4,7-triazacyclononane], the “concentration that inhibited BGM cell growth” value in data set [1] is 0.04 mM/L. For the same molecule, in [2], the “concentration that inhibited HFF cell growth” value was determined as 0.16 mM/L.

For `CC(C)(C)c1ccc(O)c(CN2CCN(Cc3cc(C(C)(C)C)ccc3O)CCN(Cc3cc(C(C)(C)C)ccc3O)CC2)c1` [N,N′,N″-tris(5-t-butyl-2-hydroxy-benzyl)-1,4,7-triazacyclononane], the IC50 (commonly the concentration at which inhibition is half-maximal) in data set [3] was found to be 110 µM. In addition, the EC50 (usually the concentration giving half of the maximal effect) with AIDS virus worked out at 3 µM.

As to `O=P(O)(O)CN1CCN(CP(=O)(O)O)CCN(CP(=O)(O)O)CC1` [N,N′,N″-tris(dihydroxyphosphorylmethyl)-1,4,7-triazacyclononane], the minimal inhibitory concentration in [4] amounted to 23.3 mM/L; with Trichophyton violaceum, 23.3 mM/L; in the data set on Trichophyton rubrum, 2.33 mM/L; in the data set on Candida albicans, 2.33 mM/L; with Trichophyton tonsuras, 23.3 mM/L. The minimum inhibitory concentration was not above 0.233 mM/L with Microsporum canis; 0.3 mM/L in the data set with Enterococcus fecalis; 0.3 mM/L in the data set with Acinobacter anitratus; 0.15 mM/L in the data set with Klebsiella pneumoniae; 0.15 mM/L in the data set on Listeria monocytogenes; 0.3 mM/L in the data set with Pseudomonas aeruginosa. Besides, the minimum inhibitory concentration (in the data set with Enterobacter cloacae; in [5]) was 0.15 mM/L throughout. Also, in the data set on Sprague Dawley rats (injection and two-week post-injection period), the “weight or rate of weight gain vs control” value is “no statistically significant difference in weight or rate of weight gain”. Besides, the “microscopic examination of tissues vs control” value with Sprague Dawley rats (necropsy on 28th day) is reported as “no differences between the tissues”. Moreover, the “weights of major organs vs control” value in the data set with Sprague Dawley rats (sacrificed on 28th day) is reported as “no differences observed between the weights of major organs”. In addition, the “concentration that inhibited BGM cell growth” value in data set [1] was 0.009 mM/L. Also, in the data set on Streptococcus Sobrinus, the MIC was less than 20 µM. In addition, the “effect on resting (nonreplicating) HFF cells” value in data set [6] is recorded as “no effect on the resting cells was observed”. For the same molecule, the antioxidant activity result in data set [7] was “antioxidant activity similar to the commonly used food antioxidant butylated hdryoxyanisole (BHA)”. Further, in data set [2], the “concentration that inhibited HFF cell growth” value came out at 0.009 mM/L.

On to `CN1CCN(CP(=O)(O)O)CCN(CP(=O)(O)O)CC1` [N-methyl-N′,N″-bis(dihydroxyphorylmethyl)-1,4,7-triazacyclononane], for which, in [8], the “relative sensitivity of cancer cell groups” value was “leukemia and colon cancer cells were more sensitive to the agent than were other cancer cells”.

For the molecule `O=P(O)(O)CN1CCN(CP(=O)(O)O)CCN(CP(=O)(O)O)CC1` [sodium salt of N,N′,N″-tris-(dihydroxyphosphorylmethyl)-1,4,7-triazacyclononane], the “concentration that inhibited monocyte penetration of Matrigel membranes” value in the data set on monocyte was “less than 10 microM”. Further, in the data set on mice, the “mice surviving for over 14 days” value is “Over 50%”. In addition, in [9], the 50% lethal dose (LD50) – broadly, the dose at which mortality reaches 50% – was more than 4000 µmol/kg. For the same molecule, the “subjective evaluation of underarm odor” value with underarm odor (30% aqueous solution in one axilla, control aqueous solution in the other) is reported as “less underarm odor in the treated axilla than in the control”. In addition, the “duration of decreased underarm odor after a single application” value in the data set with underarm odor (30% aqueous solution, single application) was “up to one week”. Further, the IC50 on pure MMP-2 enzyme was less than 10 µM.

With “salts of N,N′,N″-tri(dihydroxyphosphoryl methyl)-1,4,7-triazacyclononane”, in [10], the “concentration that inhibited enzymatic action of MMP-2” value is on record as “less than 10 microM”. Moreover, the “concentration with no adverse effects on the heart” value in [11] (before or after hypoxia/reperfusion injury) was not below 7200 µM. Also, the “concentration in the perfusing medium effective in improving myocardial functional parameters and decreasing the incidence of ventricular fibrillation” value in data set [11] (ischemic/reperfused isolated working rat heart) is given as not above 0.1 mM.
